Assay results from patent publication US7811797B2, “α-isomaltosylglucosaccharide-forming enzyme, process and uses of the same” (Kabushiki Kaisha Hayashibara Seibutsu Kagaku Kenkyujo, priority 2000, dated 2010).

Assays:
[1] = Amino carbonyl reaction with polypeptone; format: physicochemical; details: 10% (w/v) with 5% (w/v) polypeptone, 100° C., minus the control
Procedure: (§1) Four milliliters of the resulting solution were placed in a glass test tube, sealed, and heated at 100° C. for 30 to 90 min. After allowing to stand for cooling at ambient temperature, each of the resulting solutions was measured for coloration degree to examine on their amino carbonyl reactivity. In parallel, as a control, a solution with only polypeptone was provided and similarly treated as above. The coloration degree was evaluated based on the level of the absorbance, measured in a cell with 1-cm light pass at a wavelength of 480 nm, minus the control.

[2] = Reducing power on the Somogyi-Nelson's method; format: physicochemical
Amylopsin = biological target: T1, Amylopsin (Homo sapiens, UniProt P04746)
T1 sequence (P04746 16-511): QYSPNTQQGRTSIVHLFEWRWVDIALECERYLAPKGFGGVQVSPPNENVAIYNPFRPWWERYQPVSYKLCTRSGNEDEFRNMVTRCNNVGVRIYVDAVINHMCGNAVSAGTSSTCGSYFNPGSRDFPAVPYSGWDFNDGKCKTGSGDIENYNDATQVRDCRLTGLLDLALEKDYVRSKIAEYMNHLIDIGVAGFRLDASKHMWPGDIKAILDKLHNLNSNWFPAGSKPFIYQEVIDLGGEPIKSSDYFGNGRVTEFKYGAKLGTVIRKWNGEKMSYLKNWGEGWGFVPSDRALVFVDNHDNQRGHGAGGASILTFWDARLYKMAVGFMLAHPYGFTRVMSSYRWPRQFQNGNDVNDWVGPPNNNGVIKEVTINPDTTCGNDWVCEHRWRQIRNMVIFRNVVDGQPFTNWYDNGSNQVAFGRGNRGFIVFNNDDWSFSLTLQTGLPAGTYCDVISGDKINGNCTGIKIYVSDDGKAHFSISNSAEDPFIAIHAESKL

[3] = test system: Escherichia coli IFO 3301; assay: Assimilation test, Escherichia coli; format: cell-based; details: PYF medium with 0.5% saccharide, 37° C., four days, anaerobic
[4] = Amino carbonyl reaction with glycine; format: physicochemical; details: 10% (w/v) with 1% (w/v) glycine, pH 7.0, 100° C.
Procedure: as §1, with “reactivity.” for “reactivity. In parallel, as a control, a solution with only polypeptone was provided and similarly treated as above.”, “absorbance” for “level of the absorbance, measured”, “nm.” for “nm, minus the control.”

[5] = test system: α-isomaltosylglucosaccharide-forming enzyme; assay: Action on saccharides (substrates), Enzyme of Strain C11; format: biochemical, Bacillus globisporus C11; set-up: key: −: it showed no change; +: it showed a slight reduction of the color spot of the substrate and the formation of other reaction product; ++: it showed a high reduction of the color spot of the substrate and the formation of other reaction product; +++: it showed a substantial disappearance of the substrate spot and the formation of other reaction product; details: two units/g substrate, substrate 2% (w/v), 30° C., pH 6.0, 24 hours, TLC
Procedure, shortened: (§2)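 Purified enzyme from each strain was added at 2 units/g substrate to each of 24 saccharides at 2% (w/v). Incubation ran 24 h at 30° C, pH 6.0, or pH 8.4 for the A19 enzyme. TLC compared reaction mixtures before and after incubation to show whether each substrate was acted on.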

[6] = test system: α-isomaltosylglucosaccharide-forming enzyme; assay: Action on saccharides (substrates), Enzyme of Strain A19; format: biochemical, Arthrobacter globiformis A19; set-up: key: −: it showed no change; +: it showed a slight reduction of the color spot of the substrate and the formation of other reaction product; ++: it showed a high reduction of the color spot of the substrate and the formation of other reaction product; +++: it showed a substantial disappearance of the substrate spot and the formation of other reaction product; details: two units/g substrate, substrate 2% (w/v), 30° C., pH 8.4, 24 hours, TLC
Procedure, shortened: as §2

Salivary amylase = biological target: T2, Salivary amylase (Homo sapiens, UniProt P0DUB6); assay: Digestion test in vitro, salivary amylase
T2 sequence (P0DUB6 16-511): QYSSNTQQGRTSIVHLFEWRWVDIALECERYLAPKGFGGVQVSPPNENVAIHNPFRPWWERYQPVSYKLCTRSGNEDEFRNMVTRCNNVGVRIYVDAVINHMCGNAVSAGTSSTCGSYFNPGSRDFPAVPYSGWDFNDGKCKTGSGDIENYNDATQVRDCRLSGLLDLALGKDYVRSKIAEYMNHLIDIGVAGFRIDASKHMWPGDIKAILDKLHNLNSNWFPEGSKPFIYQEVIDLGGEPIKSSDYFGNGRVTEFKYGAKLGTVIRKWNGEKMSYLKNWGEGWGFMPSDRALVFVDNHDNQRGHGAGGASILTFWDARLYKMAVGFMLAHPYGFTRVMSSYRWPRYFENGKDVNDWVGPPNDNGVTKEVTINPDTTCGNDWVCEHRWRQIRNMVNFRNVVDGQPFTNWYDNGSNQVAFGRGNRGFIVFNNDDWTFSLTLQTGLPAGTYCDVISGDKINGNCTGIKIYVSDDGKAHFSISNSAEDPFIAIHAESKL

[7] = test system: α-isomaltosylglucosaccharide-forming enzyme; assay: Action on saccharides (substrates), Enzyme of Strain C9; format: biochemical, Bacillus globisporus C9; set-up: key: −: it showed no change; +: it showed a slight reduction of the color spot of the substrate and the formation of other reaction product; ++: it showed a high reduction of the color spot of the substrate and the formation of other reaction product; +++: it showed a substantial disappearance of the substrate spot and the formation of other reaction product; details: two units/g substrate, substrate 2% (w/v), 30° C., pH 6.0, 24 hours, TLC
Procedure, shortened: as §2

| Structure (SMILES) | Coloration degree (A480 nm) ([1]; heating time 0 min) | Coloration degree (A480 nm) ([1]; heating time 30 min) | Coloration degree (A480 nm) ([1]; heating time 60 min) | Coloration degree (A480 nm) ([1]; heating time 90 min) | reducing power [2] | Decomposition percentage (%) by digestive enzyme (Amylopsin) [%] | Assimilability [3] | Coloration degree (A480 nm) ([4]; heating time 0 min) | Coloration degree (A480 nm) ([4]; heating time 30 min) | Coloration degree (A480 nm) ([4]; heating time 60 min) | Coloration degree (A480 nm) ([4]; heating time 90 min) | Enzymatic action, Enzyme of Strain C11 [5] | Enzymatic action, Enzyme of Strain A19 [6] | Decomposition percentage (%) by digestive enzyme (Salivary amylase) [%] | Enzymatic action, Enzyme of Strain C9 [7] |
| --- | --- | --- | --- | --- | --- | --- | --- | --- | --- | --- | --- | --- | --- | --- | --- |
| OCC1OC2OCC3O[C@H](O[C@H]4C(O)C(CO)OC(OCC5O[C@H](O[C@@H](C1O)C2O)C(O)C(O)[C@@H]5O)C4O)C(O)C(O)[C@@H]3O (stereo partly drawn) [Cyclotetrasaccharide, cyclo{→6)-α-D-glucopyranosyl-(1→3)-α-D-glucopyranosyl-(1→6)-α-D-glucopyranosyl-(1→3)-α-D-glucopyransoyl-(1→}] | 0.00 | 0.00 | 0.00 | 0.00 | below a detectable level | 0.0 | − (judged negative (−) when the post culture had a pH of 6.0 or higher) | 0.00 | 0.00 | 0.00 | 0.00 |  |  |  |  |
| OC[C@@H](O)[C@@H](O[C@H]1O[C@H](CO)[C@@H](O)[C@H](O)[C@H]1O)[C@H](O)[C@@H](O)CO [Maltitol, reference compound] |  |  |  |  |  |  |  |  |  |  |  | − | − | 0.0 | − |
